From patent publication US20260115285A1, “MEDICAMENT FOR TREATMENT AND/OR PREVENTION OF CANCER” (TORAY INDUSTRIES, INC., priority 2022, published 2026)

Test system: human colon cancer cell line (HCT116)
Assay: Example 4: THP-1-mediated phagocytic activity, anti-CAPRIN-1, anti-CD20 or anti-HER-2 antibody alone or with olaparib
Format: cell-based
Settings: 1×10^4 HCT116 cocultured 1 hour with 1×10^5 THP-1, antibody final concentration 1 μg/mL (1 μM); for combination HCT116 cultured 2 days with olaparib 20 μM beforehand; N=3
Procedure: The human-derived cancer cell used was a colon cancer cell line HCT116.
Each cancer cell line after the culture was dissociated with TrypLE Express (Thermo), and the cancer cells were stained by the addition of calcein-AM at a final concentration of 0.04 μg/mL and incubation at 37° C. for 10 minutes. […] Further, dead cells were stained with propidium iodide (PI) (final concentration: 0.1 μg/mL), followed by the measurement of fluorescence from the cells by flow cytometry. PI-positive dead cells were excluded from analysis. The human monocytic cells THP-1 recognize an antibody bound onto cancer cells and phagocytize the cancer cells. At that time, if the cancer cells have been stained with calcein-AM, the monocytic cells ingesting the cancer cells by phagocytosis also become positive to calcein-AM. Thus, the phagocytic activity in this evaluation system was calculated as the ratio (%) of APC-positive/calcein-AM-positive cells to the whole calcein-AM-positive population.

Q: “anti-CD20 antibody: anti-CD20 antibody (“Rituxan”) purchased from Chugai Pharmaceutical Co., Ltd.” was tested. Which “phagocytic activity against cancer cells” value did it give?
A: ≤ 7%
